Test results reported in ChEMBL document CHEMBL1125820, “Structure-activity relationship of mutagenic aromatic and heteroaromatic nitro compounds. Correlation with molecular orbital energies and hydrophobicity” (J Med Chem, 1991).

Experiments:
[1] = Partition coefficient (logP); settings: octanol/water
Salmonella typhimurium = experiment: Mutagenic activity in an Ames test on Salmonella Typhimurium TA98; Activity is log of revertants/nmol; format: functional, Salmonella enterica subsp. enterica serovar Typhimurium; parameters: scale not given here

SMILES | logP [1] | Activity (Salmonella typhimurium)
O=[N+]([O-])c1ccc(F)cc1F | 1.89 | -1.66
Cn1ccc2cc([N+](=O)[O-])ccc21 | 2.5 | 
N#Cc1ccc2c(c1)Cc1cc([N+](=O)[O-])ccc1-2 | 3.4 | 2.51
Nc1ccccc1-c1ccc([N+](=O)[O-])cc1 | 2.68 | -1.7
O=[N+]([O-])c1cccc2[nH]c3ccccc3c12 | 3.51 | -2
O=[N+]([O-])c1ccc2ccc3cccc4ccc1c2c34 [1-NITROPYRENE] | 4.69 | 2.78
O=[N+]([O-])c1ccc2c3c(cccc13)CC2 | 3.85 | 0.58
Nc1cccc(-c2ccccc2[N+](=O)[O-])c1 | 2.68 | -2
COc1ccccc1[N+](=O)[O-] [2-NITROANISOLE] | 1.73 | -2.7
O=[N+]([O-])c1ccc2ccc3c(O)ccc4ccc1c2c43 | 4.19 | 1.34
Cc1ccc2c(c1)Cc1cc([N+](=O)[O-])ccc1-2 | 4.62 | 2.36
O=[N+]([O-])C1Cc2cccc3cccc1c23 (stereo unspecified) | 2.72 | 1.77
O=[N+]([O-])c1ccc2ccc3c4c(cc5ccc1c2c53)CCCC4 | 6.57 | 0.3
CN1CCc2cc([N+](=O)[O-])ccc21 | 2.86 | 
O=[N+]([O-])c1c2c(cc3c1ccc1ccccc13)C=CC(O)C2O (stereo unspecified) | 2.55 | 
O=[N+]([O-])c1cc2c3c(cc([N+](=O)[O-])c([N+](=O)[O-])c3c1)-c1ccccc1-2 | 4.18 | 3.44
O=[N+]([O-])c1c2c3c(ccc4cccc(c43)CC2)c2ccccc12 | 6.16 | 0.3
Cc1ccccc1-c1ccc([N+](=O)[O-])cc1 | 4.27 | -0.23
O=[N+]([O-])c1ccc2ccc3c4ccccc4cc4ccc1c2c43 | 5.87 | 2.82
O=[N+]([O-])c1ccc2c3ccccc3c3cccc4ccc1c2c43 | 5.87 | 
O=[N+]([O-])c1cccc2c1-c1cccc3c([N+](=O)[O-])ccc-2c13 | 4.44 | 5.09
O=[N+]([O-])c1ccc2cc3ccccc3cc2c1 | 4.23 | 2.95
O=[N+]([O-])c1ccc2c(c1)NCC2 | 1.92 | -0.48
O=[N+]([O-])c1ccc2c3ccccc3c3c([N+](=O)[O-])ccc4ccc1c2c43 | 5.61 | 1.99
O=[N+]([O-])C1=Cc2ccc3ccc4cccc5cc1c2c3c45 | 4.35 | 0.77
COc1ccc2c(c1)Cc1cc([N+](=O)[O-])ccc1-2 | 3.95 | 2.79

SMILES | logP [1] | Activity (Salmonella typhimurium)
O=[N+]([O-])c1ccc(F)cc1 | 1.8 | -0.23
O=[N+]([O-])c1ccc(Cl)cc1 | 2.39 | 
O=C1OCCN1/N=C/c1ccc([N+](=O)[O-])o1 [FURAZOLIDONE] |  | 2.24
O=[N+]([O-])c1ccc2ccc3cccc4c5ccccc5c1c2c34 | 5.87 | 
O=[N+]([O-])c1cc(F)ccc1F | 1.89 | -0.79
O=C(/C=C/c1ccc([N+](=O)[O-])cc1)c1ccc([N+](=O)[O-])cc1 | 2.73 | -1.42
O=[N+]([O-])c1ccc2c(c1)Oc1cc(Cl)c(Cl)cc1O2 | 6.24 | 1.73
O=[N+]([O-])c1cc2c3c(c1)CCc1cccc(c1-3)CC2 | 5.28 | 1.58
O=[N+]([O-])c1ccc2c(ccc3ccccc32)c1 | 4.23 | 2.11
O=[N+]([O-])c1ccc2c3c(c4c([N+](=O)[O-])ccc5ccc1c2c54)CCCC3 | 6.01 | 2.41
O=[N+]([O-])c1ccc(F)c(Cl)c1 | 2.74 | -1.21
O=[N+]([O-])c1ccc2c(c1)CCc1ccccc1-2 | 4.53 | 1.99
O=[N+]([O-])c1ccc(Cl)c([N+](=O)[O-])c1 [DINITROCHLOROBENZENE] | 2.17 | 0.3
O=[N+]([O-])c1ccc2ccc3c4c(cc5ccc1c2c53)C=CC(O)C4O (stereo unspecified) | 3.01 | 2.8
O=[N+]([O-])c1cccc2cc[nH]c12 | 2.13 | 
Cc1ncc([N+](=O)[O-])n1CCO [METRONIDAZOLE] | -0.02 | 
O=[N+]([O-])c1ccc2ccc3cc4ccccc4c4ccc1c2c34 | 5.87 | 2.63
Nc1ccc([N+](=O)[O-])cc1N | 0.88 | 0.63
Cc1cc(-c2ccccc2)ccc1[N+](=O)[O-] | 3.99 | -0.1
Nc1ccc([N+](=O)[O-])cc1O | 1.36 | -2.4
O=C1NCCN1c1ncc([N+](=O)[O-])s1 [NIRIDAZOLE] | 0.95 | 2.59
O=[N+]([O-])c1ccc2[nH]ccc2c1 | 2.13 | 0.57
O=[N+]([O-])c1ccc2c(ccc3c4ccccc4ccc23)c1 | 5.41 | -0.22
O=C(/C=C/c1ccc([N+](=O)[O-])o1)N/N=C/c1ccc([N+](=O)[O-])o1 | 2.79 | 2.45
Cn1c([N+](=O)[O-])nc2ccccc21 | 1.58 | 2.54
O=[N+]([O-])c1ccc(F)c([N+](=O)[O-])c1 | 1.49 | 1.2

SMILES | logP [1] | Activity (Salmonella typhimurium)
O=[N+]([O-])c1ccc2c3c(cccc13)C=C2 | 3.36 | 1.91
Nc1ccc(-c2ccc([N+](=O)[O-])cc2)cc1 | 2.68 | 
O=[N+]([O-])c1ccc2c(c1)Nc1cccc([N+](=O)[O-])c1N2 | 2.29 | 2.02
O=[N+]([O-])c1c(Cl)cc2c(c1Cl)Oc1cc(Cl)c(Cl)cc1O2 | 7.13 | -1.4
O=[N+]([O-])c1c(O)cc2cccc3c2c1-c1ccccc1-3 | 4.66 | 2.26
O=[N+]([O-])c1cc2c([N+](=O)[O-])ccc3c2c(c1[N+](=O)[O-])-c1ccccc1-3 | 4.18 | 3.56
O=[N+]([O-])c1cc2cccc3ccc4cccc1c4c32 | 4.69 | 
O=Cc1ccccc1[N+](=O)[O-] [2-NITROBENZALDEHYDE] |  | -1.92
O=[N+]([O-])c1cc2c3ccccc3ccc2c2ccccc12 | 5.41 | 1.75
O=[N+]([O-])c1c2c(c3ccc4cccc5ccc1c3c45)CCCC2 | 6.57 | 
O=[N+]([O-])c1cc2ccc3cccc4ccc(c1)c2c34 | 4.69 | 3.35
O=[N+]([O-])c1ccc(Cl)c(Cl)c1Cl | 3.61 | -2.94
O=[N+]([O-])c1cccc(F)c1 | 1.9 | 
O=[N+]([O-])c1ccc2ncccc2c1 | 1.84 | -1.08
O=[N+]([O-])C1=Cc2c3c1cccc3cc1ccc3ccccc3c21 | 5.07 | 0.26
Cc1ccc2cccc([N+](=O)[O-])c2n1 | 1.99 | -2.7
O=[N+]([O-])c1ccc2ccc3cccc4cc(O)c1c2c34 | 4.34 | 1.89
O=[N+]([O-])c1c2c(cc3ccccc13)C=CC(O)C2O (stereo unspecified) | 1.38 | 
O=C1Nc2ccc([N+](=O)[O-])cc2C1=O [5-NITROISATIN] | 0.47 | -0.94
O=[N+]([O-])c1ccc2c(c1)Cc1cc(Br)ccc1-2 | 4.83 | 3.06
O=[N+]([O-])c1cccc2c1-c1cccc3cccc-2c13 | 4.69 | 1.87
O=[N+]([O-])c1ccc2c3ccccc3c3ccccc3c2c1 | 5.41 | 4.09
CC(=O)Nc1ccc2c(c1)Cc1cc([N+](=O)[O-])ccc1-2 | 3.08 | 2.85
O=[N+]([O-])c1ccc2c(c1)Cc1cccc([N+](=O)[O-])c1-2 | 3.71 | 3.2
O=[N+]([O-])C1=CC=CC2Nc3ccccc3NC12 (stereo unspecified) | 2.52 | 0.87
Nc1cccc(-c2ccc([N+](=O)[O-])cc2)c1 | 2.68 | 0.25

SMILES | logP [1] | Activity (Salmonella typhimurium)
Cc1c([N+](=O)[O-])ccc2ccccc12 | 3.43 | -0.7
O=[N+]([O-])c1cccc2[nH]ccc12 | 2.13 | 
O=[N+]([O-])c1c2cccc(O)c2cc2c1ccc1ccccc12 | 5.06 | 
O=[N+]([O-])c1ccc2c(c1)CCN2 | 2.07 | 
O=[N+]([O-])c1cccc(Cl)c1 | 2.41 | 
O=[N+]([O-])c1ccc(Cl)cc1Cl | 3.09 | 
O=[N+]([O-])c1ccc2c3cccc4cccc(c5cccc1c52)c43 | 5.87 | 
O=[N+]([O-])c1ccc(/C=C/c2ccccc2)cc1 | 4.18 | 
O=[N+]([O-])c1cccc2cccnc12 | 1.44 | 
Cn1ccc2cccc([N+](=O)[O-])c21 | 2.5 | 
O=[N+]([O-])c1ccc(Cl)c(Cl)c1 | 3.12 | 
O=[N+]([O-])c1ccccc1F | 1.69 | 
O=[N+]([O-])c1ccc2ccccc2c1 | 3.24 | 
O=[N+]([O-])c1cccc2c3ccccc3c3ccccc3c12 | 5.41 | 
O=[N+]([O-])c1c2c(c3ccc4cccc5ccc1c3c45)CCCC2O (stereo unspecified) | 4.78 | 
O=[N+]([O-])c1ccc2cccc3c2c1-c1ccccc1-3 | 4.69 | 
O=[N+]([O-])c1ccc2nc3ccccc3nc2c1 | 2.52 | 
O=[N+]([O-])c1c2c(cc3ccccc13)C(O)C(O)C=C2 (stereo unspecified) | 3.4 | 
O=[N+]([O-])c1cc2ccc3cc([N+](=O)[O-])cc4ccc(c1)c2c34 | 4.44 | 
O=C1c2cc([N+](=O)[O-])ccc2-c2ccc([N+](=O)[O-])cc21 | 2.84 | 
O=[N+]([O-])c1c2ccccc2cc2c3c(ccc12)C(O)C(O)C=C3 (stereo unspecified) | 2.55 | 
O=C1CN(/N=C/c2ccc([N+](=O)[O-])o2)C(=O)N1 [NITROFURANTOIN] |  | 1.03
O=Cc1ccc([N+](=O)[O-])cc1 | 1.56 | 
CC(=O)c1ccc([N+](=O)[O-])cc1 | 1.53 | 
